Laboratory results taken from patent US10981894B2, “Melanocortin subtype-2 receptor (MC2R) antagonists and uses thereof” (Crinetics Pharmaceuticals, Inc., priority 2018, dated 2021).

Biological target: hMC2 receptor (Homo sapiens, UniProt Q01718)
Assay: hMC2 membrane binding assay ([125I]ACTH (1-39) Tyr23, SPA)
Parameters: scale not given here
Conditions: crude hMC2R membranes from CRE-bla-CHO-K1 cells expressing hMC2 receptor and hMRAP; [125I]ACTH (1-39) Tyr23 0.2 nM; 1.5 hours at room temperature; read-out: MC2R binding potency
Method in brief: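 Ki comes from non-linear regression of SPA scintillation counts. Displacement of 0.2 nM [125I]ACTH(1-39) Tyr23 by compound dose series (usually 0–10,000 nM final) ran 1.5 h at room temperature. Membranes came from CHO-K1 CRE-bla cells stably expressing hMC2R plus hMRAP, bead-coupled in pH 7.4 buffer with 0.2% BSA.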

Sequence of hMC2 receptor (Q01718 whole entry): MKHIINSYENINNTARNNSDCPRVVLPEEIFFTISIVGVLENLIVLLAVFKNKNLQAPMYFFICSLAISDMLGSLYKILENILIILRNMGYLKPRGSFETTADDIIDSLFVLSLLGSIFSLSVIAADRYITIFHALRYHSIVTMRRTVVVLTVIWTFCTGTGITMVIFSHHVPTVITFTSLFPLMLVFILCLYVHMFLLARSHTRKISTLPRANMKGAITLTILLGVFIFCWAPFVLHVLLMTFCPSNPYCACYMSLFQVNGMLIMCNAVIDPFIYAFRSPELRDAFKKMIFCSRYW
Sequence of hMC2 receptor (Q8TCY5 whole entry partner): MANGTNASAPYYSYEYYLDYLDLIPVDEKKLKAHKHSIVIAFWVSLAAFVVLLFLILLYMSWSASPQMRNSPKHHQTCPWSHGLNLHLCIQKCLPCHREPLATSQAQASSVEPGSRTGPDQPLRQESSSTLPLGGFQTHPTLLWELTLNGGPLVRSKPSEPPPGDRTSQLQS

SMILES	Ki [nM]
CCOc1ccccc1-c1ccc(N2CCN(C(=O)c3ccc(F)cc3C(F)F)C[C@H]2CC)c(C(=O)N[C@@H]2CCNC2)n1 [Compound 1-292, 3-[(2R)-4-[2-(difluoromethyl)-4-fluorobenzoyl]-2-ethylpiperazin-1-yl]-6-(2-ethoxyphenyl)-N-[(3R)-pyrrolidin-3-yl]pyridine-2-carboxamide]	< 10
CCOc1ccccc1-c1ccc(N2CCN(C(=O)c3ccc(F)cc3C(F)F)C[C@H]2CC)c(C(=O)N[C@@H]2CCN(C)C2)n1 [Compound 1-293, 3-[(2R)-4-[2-(difluoromethyl)-4-fluorobenzoyl]-2-ethylpiperazin-1-yl]-6-(2-ethoxyphenyl)-N-[(3R)-1-methylpyrrolidin-3-yl]pyridine-2-carboxamide]	< 10
CCOc1ncccc1-c1ccc(N2CCN(C(=O)c3ccc(OC)nc3C(F)(F)F)C[C@H]2CC)c(C(=O)N[C@H]2CN(C)C[C@H]2F)n1 [Compound 1-296, 2′-ethoxy-5-[(2R)-2-ethyl-4-[6-methoxy-2-(trifluoromethyl)pyridine-3-carbonyl]piperazin-1-yl]-N-[(3S,4R)-4-fluoro-1-methylpyrrolidin-3-yl]-[2,3′-bipyridine]-6-carboxamide]	< 10
CCOc1ncccc1-c1ccc(N2CCN(C(=O)C3(C(F)(F)F)CC4CCC3C4)C[C@H]2CC)c(C(=O)N[C@@H]2CCNC2)n1 (stereo partly drawn) [Compound 1-297, 2′-ethoxy-5-[(2R)-2-ethyl-4-[2-(trifluoromethyl)bicyclo[2.2.1]heptane-2-carbonyl]piperazin-1-yl]-N-[(3R)-pyrrolidin-3-yl]-[2,3′-bipyridine]-6-carboxamide]	< 10
CCOc1ncccc1-c1ccc(N2CCN(C(=O)C3(C(F)(F)F)CC(F)(F)C3)C[C@H]2CC)c(C(=O)N[C@@H]2CCNC2)n1 [Compound 1-298, 5-[(2R)-4-[3,3-difluoro-1-(trifluoromethyl)cyclobutanecarbonyl]-2-ethylpiperazin-1-yl]-2′-ethoxy-N-[(3R)-pyrrolidin-3-yl]-[2,3′-bipyridine]-6-carboxamide]	< 10
CCOc1ncccc1-c1ccc(N2CCN(C(=O)[C@H]3CC[C@@H](C(F)(F)F)CC3)C[C@H]2CC)c(C(=O)N[C@@H]2CCNC2)n1 [Compound 1-299, 2′-ethoxy-5-[(2R)-2-ethyl-4-[cis-4-(trifluoromethyl)cyclohexanecarbonyl]piperazin-1-yl]-N-[(3R)-pyrrolidin-3-yl]-[2,3′-bipyridine]-6-carboxamide]	< 10
CCOc1ccccc1-c1ccc(N2CCN(C(=O)C3(C(F)(F)F)CCCC3)C[C@H]2CC)c(C(=O)N[C@@H]2CCNC2)n1 [Compound 1-304, 6-(2-ethoxyphenyl)-3-[(2R)-2-ethyl-4-[1-(trifluoromethyl)cyclopentanecarbonyl]piperazin-1-yl]-N-[(3R)-pyrrolidin-3-yl]pyridine-2-carboxamide]	< 10
CCOc1ccccc1-c1ccc(N2CCN(C(=O)N3CCCC3C(C)(C)C)C[C@H]2CC)c(C(=O)N[C@@H]2CCNC2)n1 (stereo partly drawn) [Compound 1-305, 3-[(2R)-4-(2-tert-butylpyrrolidine-1-carbonyl)-2-ethylpiperazin-1-yl]-6-(2-ethoxyphenyl)-N-[(3R)-pyrrolidin-3-yl]pyridine-2-carboxamide]	< 10
CCOc1ncccc1-c1ccc(N2CCN(C(=O)N3CCC[C@H]3C(F)(F)F)C[C@H]2CC)c(C(=O)N[C@@H]2CCNC2)n1 [Compound 1-306, 2′-ethoxy-5-[(2R)-2-ethyl-4-[(2S)-2-(trifluoromethyl)pyrrolidine-1-carbonyl]piperazin-1-yl]-N-[(3R)-pyrrolidin-3-yl]-[2,3′-bipyridine]-6-carboxamide]	< 10
CCOc1ncccc1-c1ccc(N2CCN(C(=O)OC(C(C)(C)C)C(F)(F)F)C[C@H]2CC)c(C(=O)N[C@@H]2CCNC2)n1 (stereo partly drawn) [Compound 1-312, 1,1,1-trifluoro-3,3-dimethylbutan-2-yl (3R)-4-(2′-ethoxy-6-{[(3R)-pyrrolidin-3-yl]carbamoyl}-[2,3′-bipyridin]-5-yl)-3-ethylpiperazine-1-carboxylate]	< 10
